# From patent publication US11730717B1, “Melanin-inspired antimicrobial” (The Board of Regents for the Oklahoma Agricultural and …, priority 2020, dated 2023)
# Read-outs that look alike come from different tables or passages of the source.
# How the values were obtained:
# Enterococcus faecalis = assay: Disc agar diffusion assay; type: cell-based; conditions: Group 2: Gram-positive organisms
# Description: (§1) As a further test of an embodiment, the antibacterial properties of EIPE-1 were tested across a large panel of organisms. EIPE-1 was dissolved in DMSO, impregnated onto sterile filter paper disks, and DMSO served as the untreated control according to the following procedure: • 1. Prepare a 2.5 μg/μL stock solution of EIPE-1 by micro pipetting 200 μL of DMSO into 2.0 mL Eppendorf Tube containing 0.5 mg of EIPE-1. Dissolve with vortex agitation and store at 4° C. • 2. Use forceps to pick up sterile 6.0 mm blank paper disks. Make sure to touch only one side of disc as lightly as possible. While holding blank paper disc, deliver 10.0 μL of the 2.5 μg/μL EIPE-1 solution by touching the micropipette tip to the center of the blank paper disc. Lean the impregnated disc up against the side of a small sterile glass petri dish. Follow same procedure for DMSO control. Allow disks several hours to dry under flowing sterile air. • 3. Inoculate starter cultures using cells from working culture cultivated on Mueller-Hinton Agar (MHA; Difco Laboratories). Starters consist of ˜20 mL of Mueller-Hinton Broth (MHB; Difco Laboratories) in 125-mL culture flasks. Incubate starter cultures in an Excella E24 Benchtop Incubator Shaker (New Brunswick Scientific Co., Inc., Edison, N.J., USA) at 37° C. and 180 rpm for 15-18 hours. • 4. Pour at least 5.0 mL of NMB into 18-mL Kimax tubes. Use a Pasteur pipette to deliver enough of the starter culture cell suspension to reach an optical density (OD620) of 0.025 (Spectronic™ 20 optical spectrophotometer; Thermo Electron Corp., Madison, Wis., USA). Ensure that both transmittance and absorbance are set to 0.0 using a blank NMB sample. Incubate in rotary shaking incubator at 37° C. and 180 rpm until optical density reaches 0.1. • 5. Deliver 100 μL of test culture to the middle of a small 100 mm×15 mm Petri dish containing ˜⅛ in thickness of MHA. • 6. Saturate a sterile cotton swab with MHB by dipping the cotton swab into KIMAX® tube with MHB and then touch the swab to the north, south, east, and west side of the KIMAX® tube to remove excess broth. • 7. Streak the inoculum as follows: • a. Start in the center and make four straight lines to the 12, 3, 6, and 9 o'clock position on the petri dish. • b. Start at the 12 o'clock position and streak side to side all the way down the plate to the 6 o'clock position. […] Rotate the petri dish 90° and complete the same side to side streak all the way down the petri dish. • d. Complete step c. twice more. • e. Rotate petri dish 45° and complete the side-to-side streak. • f. Rotate petri dish 90° and complete the side-to-side streak. • 8. Use sterile forceps to transfer the DMSO control paper disc onto the agar surface and pat the paper disc down to ensure flush contact. Use the same technique to deliver EIPE-1 paper disc. • 9. Place petri dish at 4° C. for 1.0 hour to allow EIPE-1 diffusion in the absence of growth. • 10. Incubate petri dish at 37° C. for 18 hours. • 11. Observe for zones of growth inhibition surrounding disks. Measure diameter with electronic caliper and subtract 6.0-mm disc diameter. Results • a) Each organism was initially tested once to serve as a screen.
# [1] = test system: Serratia marcescens CO1-A; assay: Disc agar diffusion assay; type: cell-based; conditions: Group 1: Gram-negative organisms
# Description: as §1
# [2] = test system: Pseudomonas aeruginosa ATCC 27853; assay: Disc agar diffusion assay; type: cell-based; conditions: Group 1: Gram-negative organisms
# Description: as §1
# Micrococcus luteus = assay: Disc agar diffusion assay; type: cell-based
# Description: as §1
# [3] = test system: Staphylococcus aureus T-5706; assay: Disc agar diffusion assay; type: cell-based
# Description: as §1
# Deinoccus radiophilus = assay: Disc agar diffusion assay; type: cell-based; conditions: Group 2: Gram-positive organisms
# Description: as §1
# [4] = test system: Staphylococcus epidermidis; assay: Disc agar diffusion assay; type: cell-based
# Description: as §1
# [5] = test system: Staphylococcus aureus SFL 8; assay: Disc agar diffusion assay; type: cell-based
# Description: as §1
# [6] = test system: Staphylococcus aureus ATCC 29213; assay: Disc agar diffusion assay; type: cell-based
# Description: as §1
# Escherichia coli K12413 = assay: Disc agar diffusion assay; type: cell-based; conditions: Group 1: Gram-negative organisms
# Description: as §1
# [7] = test system: Serratia marcescens ATCC 13880; assay: Disc agar diffusion assay; type: cell-based; conditions: Group 1: Gram-negative organisms
# Description: as §1
# [8] = test system: Serratia odorifera ATCC 53077; assay: Disc agar diffusion assay; type: cell-based; conditions: Group 1: Gram-negative organisms
# Description: as §1
# [9] = test system: Serratia rubidaea ATCC 27593; assay: Disc agar diffusion assay; type: cell-based; conditions: Group 1: Gram-negative organisms
# Description: as §1
# [10] = test system: Serratia plymuthica ATCC 183; assay: Disc agar diffusion assay; type: cell-based; conditions: Group 1: Gram-negative organisms
# Description: as §1
# [11] = test system: Serratia entomophila ATCC 43705; assay: Disc agar diffusion assay; type: cell-based; conditions: Group 1: Gram-negative organisms
# Description: as §1
# Serratia marcescens 8100 = assay: Disc agar diffusion assay; type: cell-based; conditions: Group 1: Gram-negative organisms
# Description: as §1
# Bacillus cereus = assay: Disc agar diffusion assay; type: cell-based
# Description: as §1
# [12] = test system: Pasteurella moltocida P-1581; assay: Disc agar diffusion assay; type: cell-based; conditions: Group 1: Gram-negative organisms
# Description: as §1
# S. aureus ATCC 25923 = assay: MIC and MBC values (Table 2); type: cell-based, Staphylococcus aureus
# [13] = Group 2: Gram-positive organisms
# [14] = Group 3: Gram-positive organisms
smiles,measurement,setting,value
"COC(=O)c1cc2c(C#Cc3ccc(OCCC[N+](C)(C)C)cc3)c(OC)c(OC)c(C#Cc3ccc(OCCC[N+](C)(C)C)cc3)c2n1C [EIPE-1, 3,3′-((((5,6-dimethoxy-2-(methoxycarbonyl)-1-methyl-1H-indole-4,7-diyl)bis(ethyne-2,1-diyl))bis(4,1-phenylene))bis(oxy))bis(N,N,N-trimethylpropan-1-aminium) iodide]",susceptibility group in disc diffusion screen,Enterococcus faecalis,resistant
same,susceptibility group in disc diffusion screen,[1],resistant
same,susceptibility group in disc diffusion screen,[2],resistant
same,susceptibility group in disc diffusion screen,Micrococcus luteus; [13],resistant
same,zone of inhibition at 25 µg/disc,"Micrococcus luteus; Micrococcus luteus, M. luteus, 25 μg per disk, zone minus disk diameter (6.0mm), read-out: Inhibition Zone Diameter (mm) ± SD",1 ± 1 mm
same,zone of inhibition at 250 µg/disc,"Micrococcus luteus; Micrococcus luteus, M. luteus, 250 μg per disk, zone minus disk diameter (6.0mm), read-out: Inhibition Zone Diameter (mm) ± SD",2.2 ± 1.9 mm
same,susceptibility group in disc diffusion screen,[3]; [14],susceptible
same,zone of inhibition at 25 µg/disc,"[3]; Staphylococcus aureus, T5706, S. aureus T-5706, 25 μg per disk, zone minus disk diameter (6.0mm), read-out: Inhibition Zone Diameter (mm) ± SD",2.1 ± 0.3 mm
same,zone of inhibition at 250 µg/disc,"[3]; Staphylococcus aureus, T5706, S. aureus T-5706, 250 μg per disk, zone minus disk diameter (6.0mm), read-out: Inhibition Zone Diameter (mm) ± SD",2.2 ± 0.2 mm
same,susceptibility group in disc diffusion screen,Deinoccus radiophilus,resistant
same,susceptibility group in disc diffusion screen,[4]; [14],susceptible
same,zone of inhibition at 25 µg/disc,"[4]; Staphylococcus epidermidis, S. epidermidis, 25 μg per disk, zone minus disk diameter (6.0mm), read-out: Inhibition Zone Diameter (mm) ± SD",2.6 ± 0.3 mm
same,zone of inhibition at 250 µg/disc,"[4]; Staphylococcus epidermidis, S. epidermidis, 250 μg per disk, zone minus disk diameter (6.0mm), read-out: Inhibition Zone Diameter (mm) ± SD",3.3 ± 0.5 mm
same,susceptibility group in disc diffusion screen,[5]; [14],susceptible
same,zone of inhibition at 25 µg/disc,"[5]; Staphylococcus aureus, SFL8, S. aureus SFL 8, 25 μg per disk, zone minus disk diameter (6.0mm), read-out: Inhibition Zone Diameter (mm) ± SD",2.4 ± 1.3 mm
same,zone of inhibition at 250 µg/disc,"[5]; Staphylococcus aureus, SFL8, S. aureus SFL 8, 250 μg per disk, zone minus disk diameter (6.0mm), read-out: Inhibition Zone Diameter (mm) ± SD",2.4 ± 0.3 mm
same,susceptibility group in disc diffusion screen,[6]; [14],susceptible
same,zone of inhibition at 25 µg/disc,"[6]; Staphylococcus aureus, ATCC29213, S. aureus ATCC 29213, 25 μg per disk, zone minus disk diameter (6.0mm), read-out: Inhibition Zone Diameter (mm) ± SD",2.2 ± 0.6 mm
same,zone of inhibition at 250 µg/disc,"[6]; Staphylococcus aureus, ATCC29213, S. aureus ATCC 29213, 250 μg per disk, zone minus disk diameter (6.0mm), read-out: Inhibition Zone Diameter (mm) ± SD",2.9 ± 0.3 mm
same,susceptibility group in disc diffusion screen,Escherichia coli K12413,resistant
same,susceptibility group in disc diffusion screen,[7],resistant
same,susceptibility group in disc diffusion screen,[8],resistant
same,susceptibility group in disc diffusion screen,[9],resistant
same,susceptibility group in disc diffusion screen,[10],resistant
same,susceptibility group in disc diffusion screen,[11],resistant
same,susceptibility group in disc diffusion screen,Serratia marcescens 8100,resistant
same,zone of inhibition at 25 µg/disc,"Bacillus cereus; Bacillus cereus, B. cereus, 25 μg per disk, zone minus disk diameter (6.0mm), read-out: Inhibition Zone Diameter (mm) ± SD",0 mm
same,susceptibility group in disc diffusion screen,Bacillus cereus; [13],resistant
same,susceptibility group in disc diffusion screen,[12],resistant
same,MBC,"S. aureus ATCC 25923; Staphylococcus aureus, ATCC25923, repeated determinations",2 mg/L
same,MIC,"S. aureus ATCC 25923; Staphylococcus aureus, ATCC25923, repeated determinations, read-out: MIC",2 mg/L
same,MIC,S. aureus ATCC 25923; repeated determinations,1.000 mg/L
